Patent US20240425491A1, “HETEROARYL COMPOUNDS USEFUL IN THE TREATMENT OF COGNITIVE DISORDERS” (University College Cardiff Consultants Limited, priority 2021, published 2024)

What was measured:
[1] = target: T1, human recombinant GABAAR containing α5β3γ2 subunits (benzodiazepine site) (Homo sapiens, UniProt P18507+P31644); experiment: In vitro radioligand binding assay (α5-GABAAR Ki); details: inhibition of [3H]Ro15-1788 binding, membranes of L(tk−) cells expressing human α5β3γ2; read-out: α5-GABAAR Ki
T1 construct: expressed in transfected cells; host or cells: mouse L(tk−) cells, dexamethasone-inducible vector pMSGneo
T1 sequence (P31644 32-462): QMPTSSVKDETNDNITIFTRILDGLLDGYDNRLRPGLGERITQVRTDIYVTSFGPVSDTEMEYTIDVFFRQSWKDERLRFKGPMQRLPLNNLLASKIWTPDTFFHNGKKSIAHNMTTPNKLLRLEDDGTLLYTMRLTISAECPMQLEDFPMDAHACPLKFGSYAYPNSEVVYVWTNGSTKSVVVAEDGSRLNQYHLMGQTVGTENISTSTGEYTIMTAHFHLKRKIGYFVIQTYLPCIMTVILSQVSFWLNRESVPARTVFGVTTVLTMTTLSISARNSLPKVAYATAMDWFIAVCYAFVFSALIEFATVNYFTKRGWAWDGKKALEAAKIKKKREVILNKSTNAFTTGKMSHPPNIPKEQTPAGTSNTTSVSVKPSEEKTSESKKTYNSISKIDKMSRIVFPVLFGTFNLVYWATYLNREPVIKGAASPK
T1 sequence (P28472 26-473 partner): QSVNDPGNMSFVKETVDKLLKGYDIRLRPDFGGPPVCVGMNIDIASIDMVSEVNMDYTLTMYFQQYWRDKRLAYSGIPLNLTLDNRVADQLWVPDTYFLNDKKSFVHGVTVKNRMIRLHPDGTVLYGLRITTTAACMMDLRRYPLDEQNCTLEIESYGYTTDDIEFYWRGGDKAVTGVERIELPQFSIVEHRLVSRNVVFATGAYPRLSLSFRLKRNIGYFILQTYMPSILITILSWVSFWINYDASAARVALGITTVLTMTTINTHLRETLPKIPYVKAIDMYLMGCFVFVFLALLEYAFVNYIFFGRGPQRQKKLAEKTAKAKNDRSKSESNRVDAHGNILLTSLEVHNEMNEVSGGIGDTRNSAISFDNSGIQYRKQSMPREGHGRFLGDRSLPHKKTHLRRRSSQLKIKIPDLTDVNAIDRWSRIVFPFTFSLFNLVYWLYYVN
T1 sequence (P18507 40-475): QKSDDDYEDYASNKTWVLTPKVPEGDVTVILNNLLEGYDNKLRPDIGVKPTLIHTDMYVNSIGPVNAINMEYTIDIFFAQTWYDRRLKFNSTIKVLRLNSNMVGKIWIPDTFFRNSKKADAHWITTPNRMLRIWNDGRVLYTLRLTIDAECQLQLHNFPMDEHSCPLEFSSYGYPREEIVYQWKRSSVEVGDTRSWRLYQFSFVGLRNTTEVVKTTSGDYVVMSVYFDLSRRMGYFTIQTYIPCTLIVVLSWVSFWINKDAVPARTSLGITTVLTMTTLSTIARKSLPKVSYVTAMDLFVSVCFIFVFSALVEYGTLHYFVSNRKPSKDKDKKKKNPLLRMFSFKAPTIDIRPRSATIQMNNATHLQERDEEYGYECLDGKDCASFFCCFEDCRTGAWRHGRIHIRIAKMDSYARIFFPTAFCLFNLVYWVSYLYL
Text: (§1) Mouse L(tk^−) cells stably expressing human α1β3γ2, α2β3γ2, α3β3γ2, α5β3γ2 GABAARs generated by transfection of the individual subunits in the dexamethasone-inducible expression vector pMSGneo in mouse L(tk^−) cells (Hadingham et al., 1993, Mol. Pharmacol. 43:970-975 and 1993, Mol. Pharmacol. 44:1211-1218) were used for binding and functional assays. For certain compounds, HEK293 cells stable expressing the human α1β3γ2L, α2β3γ2L, α3β3γ2L and α5β3γ2L GABAA receptors were used to evaluate their functional effects in a SyncroPatch electrophysiology assay.
L(tk^−) cells stably expressing human α1β3γ2, α2β3γ2, α3β3γ2, α5β3γ2 GABAARs were maintained in DMEM F12 medium supplemented with 10% Foetal Bovine Serum, 1% Penicillin/Streptomycin and 1 mg/mL Geneticin G418 in an incubator at 37° C. with a humidified atmosphere with 5% CO2.
The affinity (Ki) of compounds for the benzodiazepine site of human recombinant GABAARs was measured by their ability to inhibit the binding of the selective benzodiazepine antagonist [^3H] Ro15-1788 ([^3H] flumazenil).
L(tk^−) cells expressing human recombinant GABAAR containing α1β3γ2, α2β3γ2, α3β3γ2, α5β3γ2 subunits were harvested and membranes were prepared for each receptor combination in phosphate buffer (K2PO4 10 mM, pH 7.0) (Hadingham et al. (1992) Proc. Natl. Acad. Sci. USA; 89 (14): 6378-82). Protein concentration, receptor expression and the Kd of [^3H] Ro15-1788 were determined before Ki values of compounds were evaluated. For Kd evaluation, saturation binding curves were obtained by incubating membrane with various concentrations of [^3H] Ro15-1788 (82.5 Ci/mM), with nonspecific binding measured in the presence of 1 μM TP003.
For Ki evaluation, cell membranes were incubated with 4 nM [^3H] Ro15-1788 along with a range of concentrations of test compound. Nonspecific binding was determined using 1 μM TP003. All incubations were performed for 1 hour at 4° C. in assay buffer. The total assay volume was 0.5 mL, containing 100 μg membrane protein/well α1β3γ2, α2β3γ2, α3β3γ2 and 50 μg membrane protein/well for α53γ2. Incubations were terminated by filtration and washing with ice cold Tris-HCl buffer (50 mM, pH=7.4) over Whatman GF/B filters and the radioactivity of the filters was measured using liquid scintillation counting.
The % inhibition of [^3H] Ro15-1788 binding was plotted as a function of compound concentration and the IC50 calculated. From the IC50, the affinity (Ki) was calculated using the method of Cheng and Prusoff using the Kd values obtained for [^3H] Ro15-1788.

[2] = target: T2, human α5β3γ2 GABAARs in mouse L(tk−) cells (Homo sapiens, UniProt P18507+P31644); experiment: In vitro electrophysiological recording assay (α5-GABAAR relative efficacy), QPatch; format: cell-based; details: for α5-GABAAR Relative Efficacy (to DMCM), Qpatch: GABA EC10-20
T2 construct: expressed in transfected cells; host or cells: mouse L(tk−) cells, dexamethasone-inducible vector pMSGneo
T2 sequence (P31644 32-462): as the sequence (P31644 32-462) above
T2 sequence (P28472 26-473 partner): as the sequence (P28472 26-473 partner) above
T2 sequence (P18507 40-475): as the sequence (P18507 40-475) above
Text: as §1
For QPatch electrophysiology testing, 1 μM dexamethasone was added to the culture medium of L(tk^−) cells 24 hours before the recordings were performed. Cells were typically used for electrophysiology experiments 72-96 hours after splitting.
The efficacy of modulators was evaluated using either the automated patch-clamp platform QPatch16 (Sophion, Copenhagen, Denmark) or the SyncroPatch 384i (Nanion Technologies, Germany). Cells were harvested from flasks by enzymatic dissociation and re-suspended in serum-free medium.
For QPatch recordings, all experiments were carried out at room temperature (20-22° C.) using a standard whole cell procedure and physiological solutions. Gigaseals were formed upon execution of a combined suction/voltage protocol with subsequent increased suction leading to the whole-cell configuration. The currents recorded were acquired at 1 KHz and filtered at 0.3 KHz using a Bessel filter. Whole-cell currents were measured at a holding potential of −65 mV.
For QPatch recordings, the extracellular solution contained of (in mM): 145 NaCl, 4 KCl, 1 MgCl2, 2CaCl2, 10 HEPES, 10 D-glucose (pH 7.4), and the intracellular solution consisted of (in mM): 96 KCl, 28 CsCl, 25 KOH, 4.3 CaCl2), 1.4 MgCl2, 10 EGTA, HEPES, 3 MgATP (pH 7.2). The osmolarities of the extracellular and intracellular solutions were 305 and 295 mOsm respectively.
The effects of modulators were evaluated in the presence of a submaximal GABA concentration, giving typically 10-20% activation (GABA EC10-20) of the response elicited by a saturating GABA concentration. For QPatch recordings, to check and ensure baseline current stability before compound addition, five consecutive applications of GABA EC10-20 alone (each application with a 2 s duration, separated by minimum 1 min wash off periods) were performed before compound addition. The test compound was applied using the pipetting system of the QPatch system 1 min at least prior to co-application with GABA EC10-20. For SyncroPatch recordings, GABA EC20 alone was applied three times (1 s long applications, with wash steps in-between) before compound addition. This was followed by a 1-2 min pre-incubation with the test compound and then re-application of GABA EC10-20 in the presence of the compound. Finally, following a further wash step, a saturating concentration of GABA was applied, allowing the accurate evaluation for each cell of the percentage baseline activation elicited by the submaximal GABA applied.
The compounds were first dissolved in DMSO as a 10 mM stock and then further diluted to the testing concentrations so that the final DMSO concentration in the extracellular recording solution was kept constant at 0.1% for the QPatch recordings, or 0.2% for the SyncroPatch recordings.
The % efficacy of modulators was determined from the GABA elicited currents recorded in the presence and absence of the test compound, using the formula:
[((compound peak current−leak)−(GABA peak current−leak))/(GABA peak current−leak)]*100,
where ‘leak’ is the leak baseline current at −65 mV, ‘compound peak current’ is the current elicited by co-application of compound and GABA, and ‘GABA peak current’ is the current elicited by GABA alone during the 5th GABA application. The results were presented as ‘relative efficacy’ for each compound generally at a concentration equal or higher than 100 times their determined Ki. […]

SMILES	Ki [1]	α5-GABAAR Relative Efficacy (to DMCM), Qpatch ([2]; Conc 3 μM)	further results
COc1nc(-c2cncc(N)n2)ccc1NC(=O)c1c(-c2ccccc2)noc1C [Example 40, N-[6-(6-Aminopyrazin-2-yl)-2-methoxy-3-pyridyl]-5-methyl-3-phenyl-isoxazole-4-carboxamide]	6.9 nM	–	α5-GABAAR Relative Efficacy (to DMCM), Qpatch ([2]; Conc 1 μM): −0.57
COc1nc(-c2cnn(C(C)C)c2)ccc1NC(=O)c1c(-c2ccccc2)noc1C [Example 21, N-[6-(1-Isopropylpyrazol-4-yl)-2-methoxy-3-pyridyl]-5-methyl-3-phenyl-isoxazole-4-carboxamide]	20.5 nM	−0.48	–
CNCc1ccc(-c2ccc(NC(=O)c3c(-c4ccccc4)noc3C)c(OC)n2)cc1.Cl [Example 183, N-[2-Methoxy-6-[4-(methylaminomethyl)phenyl]-3-pyridyl]-5-methyl-3-phenyl-isoxazole-4-carboxamide hydrochloride]	14.2 nM	−0.68	–
COc1nc(-n2ccnc2)cnc1NC(=O)c1c(-c2ccccc2)noc1C [Example 44, N-(5-Imidazol-1-yl-3-methoxy-pyrazin-2-yl)-5-methyl-3-phenyl-isoxazole-4-carboxamide]	3.6 nM	–	α5-GABAAR Relative Efficacy (to DMCM), Qpatch ([2]; Conc 1 μM): −0.69
COc1cc(-c2cnn(C)c2)ccc1NC(=O)c1c(-c2ccccc2)noc1C [Example 12, N-[2-Methoxy-4-(1-methylpyrazol-4-yl)phenyl]-5-methyl-3-phenyl-isoxazole-4-carboxamide]	17.1 nM	−0.68	–
COc1nc(-c2cncnc2)cnc1NC(=O)c1c(-c2ccccc2)noc1C [Example 56, N-(3-Methoxy-5-(pyrimidin-5-yl)pyrazin-2-yl)-5-methyl-3-phenylisoxazole-4-carboxamide]	2.3 nM	–	α5-GABAAR Relative Efficacy (to DMCM), Qpatch ([2]; Conc 0.3 μM): −0.64
COc1nc(-c2ncnn2C)ccc1NC(=O)c1c(-c2ccccc2)noc1C [Example 52, N-[2-Methoxy-6-(2-methyl-1,2,4-triazol-3-yl)-3-pyridyl]-5-methyl-3-phenyl-isoxazole-4-carboxamide]	9.8 nM	–	α5-GABAAR Relative Efficacy (to DMCM), Qpatch ([2]; Conc 1 μM): −0.49
CNCc1ncc(-c2cnc(NC(=O)c3c(-c4ccccc4)noc3C)c(OC)n2)cn1.Cl [Example 169, N-[3-Methoxy-5-[2-(methylaminomethyl)pyrimidin-5-yl]pyrazin-2-yl]-5-methyl-3-phenyl-isoxazole-4-carboxamide hydrochloride]	5.2 nM	–	α5-GABAAR Relative Efficacy (to DMCM), Qpatch ([2]; Conc 1 μM): −0.88
COc1nc(-c2cnc(C3CC3)nc2)ccc1NC(=O)c1c(-c2ccccc2)noc1C [Example 17, N-[6-(2-Cyclopropylpyrimidin-5-yl)-2-methoxy-3-pyridyl]-5-methyl-3-phenyl-isoxazole-4-carboxamide]	10.8 nM	−0.81	–
CCc1c(C(=O)OC)ncc2[nH]c3cc(OC)c(OC)cc3c12 [DMCM, methyl-6,7-dimethoxy-4-ethyl-beta-carboline-3-carboxylate, reference compound]	–	–	attenuation of GABA-induced currents (efficacy) ([2]; n=5, reference for normalising relative efficacy): −57±4%

Continued, in another order:

Ki [1]	α5-GABAAR Relative Efficacy (to DMCM), Qpatch ([2]; Conc 3 μM)	SMILES	further results
19.5 nM	−0.65	CCn1nc(-c2nccs2)cc1-c1ccc(NC(=O)c2c(-c3ccccc3)noc2C)c(OC)n1 [Example 80, N-(6-(1-Ethyl-3-(thiazol-2-yl)-1H-pyrazol-5-yl)-2-methoxypyridin-3-yl)-5-methyl-3-phenylisoxazole-4-carboxamide]	–
29.1 nM	−0.53	COc1nc(-c2cnn(-c3ccncc3)c2)ccc1NC(=O)c1c(-c2ccccc2)noc1C [Example 110, N-(2-Methoxy-6-(1-(pyridin-4-yl)-1H-pyrazol-4-yl)pyridin-3-yl)-5-methyl-3-phenylisoxazole-4-carboxamide]	–
1.5 nM	–	COc1nc(-c2ccc3nc(N)nn3c2)ccc1NC(=O)c1c(-c2ccccc2)noc1C [Example 57, N-[6-(2-Amino-[1,2,4]triazolo[1,5-a]pyridin-6-yl)-2-methoxy-3-pyridyl]-5-methyl-3-phenyl-isoxazole-4-carboxamide]	α5-GABAAR Relative Efficacy (to DMCM), Qpatch ([2]; Conc 0.3 μM): −0.57
1.1 nM	–	Cc1onc(-c2ccc(F)cc2)c1C(=O)Nc1ccc(-n2ccnc2)nc1OC(C)C [Example 204, 3-(4-Fluorophenyl)-N-(6-imidazol-1-yl-2-isopropoxy-3-pyridyl)-5-methyl-isoxazole-4-carboxamide]	α5-GABAAR Relative Efficacy (to DMCM), Qpatch ([2]; Conc 0.1 μM): −0.39
6.6 nM	–	CNc1cc(-c2ccc(NC(=O)c3c(-c4ccccc4)noc3C)c(OC)n2)ccn1 [Example 103, N-(6-Methoxy-2′-(methylamino)-[2,4′-bipyridin]-5-yl)-5-methyl-3-phenylisoxazole-4-carboxamide]	α5-GABAAR Relative Efficacy (to DMCM), Qpatch ([2]; Conc 1 μM): −0.78
3 nM	–	COc1nc(-c2cnc3cnn(C)c3c2)ccc1NC(=O)c1c(-c2ccccc2)noc1C [Example 100, N-(2-Methoxy-6-(1-methyl-1H-pyrazolo[4,3-b]pyridin-6-yl)pyridin-3-yl)-5-methyl-3-phenylisoxazole-4-carboxamide]	α5-GABAAR Relative Efficacy (to DMCM), Qpatch ([2]; Conc 0.3 μM): −0.72
51.9 nM	–	CCOC(=O)Cn1c(-c2ccc(NC(=O)c3c(-c4ccccc4)noc3C)c(OC)n2)cnc1C [Example 134, Ethyl 2-[5-[6-methoxy-5-[(5-methyl-3-phenyl-isoxazole-4-carbonyl)amino]-2-pyridyl]-2-methyl-imidazol-1-yl] acetate]	–
7 nM	–	COc1nc(-c2ccc(CN3CC4COCC4C3)cc2)ccc1NC(=O)c1c(-c2ccccc2)noc1C (stereo not drawn) [Example 233, N-(2-methoxy-6-(4-((tetrahydro-1H-furo[3,4-c]pyrrol-5 (3H)-yl)methyl)phenyl)pyridin-3-yl)-5-methyl-3-phenylisoxazole-4-carboxamide]	–
